According to patent publication US20050159599A1, “Cyclic compound, process for producing the same, and pest control agent” (priority 2002, published 2005):

Test system: Spodoptera litura
Assay: Insecticidal effect for Spodoptera litura by spraying treatment to host crop (Test Example 2)
Format: in vivo
Details: 100 ppm; sprayed on soybean; third-instar larvae of Spodoptera litura; fifth day after
Procedure: Insecticidal Effect for Spodoptera litura by Spraying Treatment to Host Crop
A pesticidal solution, which was prepared by dissolving 5 mg of test compound (represented by the compound Nos. in the above Examples) in 0.5-ml of acetone containing Tween 20 (trade name) and then diluting it to the prescribed concentration (100 ppm) with Dain (trade name, sticker) water diluted 5000-fold, was sprayed on a soybean whose primary leaves had developed completely with spray gun in the amounts wherein the pesticidal solution dripped. After drying the pesticidal solution, two primary leaves were cut off. The leaves were put into an ice cream cup (180 ml), and ten third-instar larvae of Spodoptera litura were set free therein. The cup was left in a temperature-controlled breeding room (25° C.). On the fifth day after, the number of surviving Spodoptera litura was examined. The rate of dead pests was calculated by the following formula. rate of dead pests (%)=(number of dead pests/number of test pests)×100

Row | SMILES | rate of dead pests (%)
1 | O=C(c1c(F)cccc1Cl)N1COCN(c2ccc([S+]([O-])C(F)(F)F)c(Cl)c2F)C1=O (stereo not drawn) [I-273] | 100
2 | Cc1cc(SC(F)(F)F)ccc1N1CN(C)CN(C(=O)c2c(F)cccc2Cl)C1=O [III-455] | 100
3 | Cc1c(N2COCN(C(=O)c3c(F)cccc3Cl)C2=O)ccc([S+]([O-])C(F)(F)F)c1Cl (stereo not drawn) [I-300] | 100
4 | O=C(c1c(F)cccc1Cl)N1COCN(c2c(F)cc([S+]([O-])C(F)(F)F)c(F)c2F)C1=O (stereo not drawn) [I-294] | 100
5 | O=C(c1c(F)cccc1F)N1COCN(c2cc(Cl)c(OC(F)(F)C(F)C(F)(F)F)cc2Cl)C1=O (stereo not drawn) [I-6] | 100
6 | O=C(c1c(F)cccc1Cl)N1COCN(c2ccc(SC(F)(F)C(F)(F)F)cc2F)C1=O [I-305] | 100
7 | O=C(c1c(F)cccc1F)N1COCN(c2ccc(SC(F)(F)F)c(Cl)c2)C1=O [I-77] | 100
8 | O=C(c1c(F)cccc1F)N1COCN(c2cc(F)c(SC(F)(F)F)cc2F)C1=O [I-110] | 100
9 | CS(=O)(=O)N1CN(C(=O)c2c(F)cccc2F)C(=O)N(c2ccc(SC(F)F)cc2F)C1 [III-150] | 100
10 | O=C(c1c(F)cccc1Cl)N1COCN(c2ccc(SC(F)(F)F)c(F)c2)C1=O [I-257] | 100
11 | O=C(c1c(F)cccc1Cl)N1COCN(c2cc(F)c(SC(F)(F)F)cc2F)C1=O [I-287] | 100
12 | O=C(c1c(F)cccc1Cl)N1COCN(c2ccc([S+]([O-])C(F)(F)F)c(F)c2F)C1=O (stereo not drawn) [I-285] | 100
13 | O=C(c1c(F)cccc1Cl)N1COCN(c2ccc(SC(F)(F)F)c(Cl)c2Cl)C1=O [I-269] | 100
14 | O=C(c1c(F)cccc1F)N1COCN(c2ccc(SC(F)(F)F)c(Cl)c2F)C1=O [I-95] | 100
15 | O=C(c1c(F)cccc1Cl)N1COCN(c2ccc(SC(F)(F)F)c(F)c2F)C1=O [I-284] | 100
16 | Cc1cc(SC(F)(F)F)c(F)cc1N1COCN(C(=O)c2c(F)cccc2F)C1=O [I-125] | 100
17 | Cc1cc(SC(F)(F)F)ccc1N1COCN(C(=O)c2c(F)cccc2F)C1=O [I-68] | 100
18 | Cc1cc([S+]([O-])C(F)(F)F)c(Cl)cc1N1COCN(C(=O)c2c(F)cccc2F)C1=O (stereo not drawn) [I-90] | 100
19 | O=C(c1c(Cl)cccc1Cl)N1COCN(c2ccc(SC(F)F)cc2F)C1=O [I-395] | 100
20 | CC(=O)N1CN(C(=O)c2c(F)cccc2F)C(=O)N(c2ccc([S+]([O-])C(F)(F)F)cc2F)C1 (stereo not drawn) [III-165] | 100
21 | O=C(c1c(F)cccc1Cl)N1COCN(c2ccc(SC(F)(F)F)c(Cl)c2F)C1=O [I-272] | 100
22 | Cc1cc([S+]([O-])C(F)(F)F)c(C)cc1N1COCN(C(=O)c2c(F)cccc2F)C1=O (stereo not drawn) [I-87] | 100
23 | O=C(c1c(F)cccc1F)N1CN(c2ccccc2)CN(c2ccc(Oc3ccc(C(F)(F)F)cc3Cl)cc2F)C1=O [III-30] | 100
24 | O=C(c1c(F)cccc1F)N1COCN(c2ccc(Oc3ccc(C(F)(F)F)cc3Cl)cc2F)C1=O [I-3] | 100

Same assay, conditions: 120 h; 100 ppm; sprayed on soybean; third-instar larvae of Spodoptera litura; fifth day after; read-out: rate of dead pests (%)

Row | SMILES | pest or weed control at 100 ppm [%]
25 | O=C(c1c(F)cccc1F)N1COCN(c2ccc(SC(F)(C(F)(F)F)C(F)(F)F)cc2F)C1=O [I-158, 3-(2,6-difluorobenzoyl)-5-[2-fluoro-4-(1,1,1,2,3,3,3-heptafluoro-2-propylthio)phenyl]tetrahydro-4H-1,3,5-oxadiazin-4-one] | 100
26 | C=CCN1CN(C(=O)c2c(F)cccc2F)C(=O)N(c2ccc(Cl)cc2)C1 [III-5, 5-allyl-1-(4-chlorophenyl)-3-(2,6-difluorobenzoyl)tetrahydro-1,3,5-triazin-2 (1H)-one] | 100
27 | CS(=O)(=O)N1CN(C(=O)c2c(F)cccc2F)C(=O)N(c2ccc(SC(F)(F)F)cc2F)C1 [III-162, 1-(2,6-difluorobenzoyl)-3-[2-fluoro-4-(trifluoromethylthio)phenyl]-5-methylsulfonyltetrahydro-1,3,5-triazin-2(1H)-one] | 100
